Experimental data published in paper PMC8624133, “10th Trends in Medical Mycology Held on 8 to 11 October 2021, Aberdeen, Scotland, Organized by the European Confederation of Medical Mycology (ECMM)” (Journal of Fungi, 2021).
In brackets after ≈: the same amount, converted by molar mass. Like-named read-outs stand apart in the source and are kept apart here.

Columns and labels:
[1] = tested on: Scedosporium and Lomentospora species; test: Antifungal susceptibility tests; assay type: cell-based
Method: (§1) Materials & Methods: Antifungal susceptibility tests and biofilm assay were performed to evaluate the activity of miltefosine against Scedosporium and Lomentospora species. Electron microscopy and fluorescent dyes, such as 2′,7′ –dichlorofluorescein diacetate and JC-1, were used to check the effects on cell integrity, oxidative stress and mitochondrial membrane potential, respectively. Miltefosine effects on fungal membrane were evaluated by fillipin staining, the susceptibility to membrane and cell wall stressors and the analysis of cell membrane permeability. Sinergystic assay was performed to check miltefosine interaction with current antifungal agents used in clinical settings.

[2] = tested on: Scedosporium and Lomentospora species; test: Biofilm assay; assay type: cell-based
Method: as §1

C. glabrata = test: EUCAST and CLSI susceptibility, multicenter; assay type: cell-based, Candida glabrata; settings: Nakaseomyces glabratus, seven laboratories
Method: (§2) Methods: We performed a multicenter study to determine the antifugal susceptibility to AmB from AmBisome (provided by Gilead) using both CLSI and EUCAST protocols. We tested this activity against the most relevant clinical fungal species.Representative isolates from different geographical regions were included in the study. Other antifungals were evaluated (fluconazole, itraconazole, voriconazole, posaconazole, caspofungin, micafungin and anidulafungin).

C. parapsilosis = test: EUCAST and CLSI susceptibility, multicenter; assay type: cell-based, Candida parapsilosis; settings: Lodderomyces parapsilosis, seven laboratories
Method: as §2

C. auris = test: EUCAST and CLSI susceptibility, multicenter; assay type: cell-based, Candida auris; settings: Candidozyma auris, seven laboratories
Method: as §2

[3] = tested on: Lomentospora prolificans and Cunninghamella bertholletiae; test: EUCAST and CLSI susceptibility, multicenter; assay type: cell-based
Method: as §2

A. terreus = test: EUCAST and CLSI susceptibility, multicenter; assay type: cell-based; settings: Aspergillus terreus
Method: as §2

A. flavus = test: EUCAST and CLSI susceptibility, multicenter; assay type: cell-based; settings: Aspergillus flavus
Method: as §2

C. tropicalis = test: EUCAST and CLSI susceptibility, multicenter; assay type: cell-based; settings: Candida tropicalis, seven laboratories
Method: as §2

Candida albicans = test: EUCAST and CLSI susceptibility, multicenter; assay type: cell-based; settings: seven laboratories
Method: as §2

A. niger = test: EUCAST and CLSI susceptibility, multicenter; assay type: cell-based; settings: Aspergillus niger
Method: as §2

[4] = tested on: other filamentous fungi, including Talaromyces marneffei; test: EUCAST and CLSI susceptibility, multicenter; assay type: cell-based; settings: around, read-out: GM MIC, both methods
Method: as §2

Aspergillus fumigatus = test: EUCAST and CLSI susceptibility, multicenter; assay type: cell-based
Method: as §2

A. nidulans = test: EUCAST and CLSI susceptibility, multicenter; assay type: cell-based; settings: Aspergillus nidulans
Method: as §2

[5] = tested on: Candida isolates from animals; test: CLSI M44-A2 disk diffusion; assay type: cell-based, Candida spp.; settings: 10 µg discs; all 10 isolates
Method: Methods: Swab samples were plated on Sabouraud dextrose agar (SDA) with the addition of chloramphenicol. M. pachydermatis strains were identified by conventional laboratory methods and their ability to grow on SDA without lipid supplementation. The identification of Candida isolates was based on their phenotypic characterization and molecular methods using the universal ITS-1 and ITS-4 primers for amplification of the internal transcribed spacer 1 (ITS1), ITS2 regions and the 5.8S ribosomal DNA region followed by sequence-based identification. Susceptibility of Candida isolates was determined as described by the CLSI M44-A2 method using MCZ, CTZ and ITZ discs (10 µg, Neo-Sensitabs, Rosco, Denmark). Because the standard procedure for Candida susceptibility testing cannot be applied to M. pachydermatis, recommended modified protocol was used. The results were interpreted according to manufacturer’s guidelines.

T. rubrum = test: Ergosterol content by HPLC; assay type: cell-based, Trichophyton rubrum; settings: control 13.56 ± 0.35 mg%
Method: (§3) Materials & Methods: The minimum inhibitory concentration (MIC) of honokiol was assessed by broth microdilution method against standard strains (Trichophyton rubrum ATCC 28188, Trichophyton mentagrophytes ATCC 9533), and clinical isolates (T. rubrum, T. ajelloi, Microsporum canis and M. gypseum). Evaluation of honokiol effect on ergosterol biosynthesis was assessed by high performance liquid chromatography. Checkerboard microtiter method was used to identify synergistic combinations of honokiol with terbinafine against Trichophyton rubrum ATCC 28188. The combinatorial effect was evaluated by calculating the fractional inhibitory concentration index (FICI).

[6] = tested on: Trichophyton rubrum ATCC 28188; test: Checkerboard microtiter method with terbinafine; assay type: cell-based; settings: honokiol + terbinafine, additive interactions
Method: as §3

[7] = tested on: dermatophyte standard strains and clinical isolates; test: Broth microdilution MIC; assay type: cell-based, Trichophyton and Microsporum spp.; settings: all tested strains
Method: as §3

CCCCCCCCCCCCCCCCOP(=O)([O-])OCC[N+](C)(C)C [Miltefosine, miltefosine]
inhibitory concentration [1]: 2 to 4 µg/mL
biofilm formation [2]: reduced biofilm formation

C[C@@H]1[C@H](O)[C@@H](C)/C=C/C=C/C=C/C=C/C=C/C=C/C=C/[C@H](O[C@@H]2O[C@H](C)[C@@H](O)[C@H](N)[C@@H]2O)C[C@@H]2O[C@](O)(C[C@@H](O)C[C@@H](O)[C@H](O)CC[C@@H](O)C[C@@H](O)CC(=O)O[C@H]1C)C[C@H](O)[C@H]2C(=O)O [AmB from AmBisome, Amphotericin B]
MIC (C. glabrata; read-out: GM MIC, CLSI): 0.33 µg/mL (≈ 0.357 µM)
MIC (C. glabrata; read-out: GM MIC, EUCAST): 0.34 µg/mL (≈ 0.368 µM)
MIC (C. parapsilosis; read-out: GM MIC, CLSI): 0.38 µg/mL (≈ 0.411 µM)
MIC (C. parapsilosis; read-out: GM MIC, EUCAST): 0.36 µg/mL (≈ 0.39 µM)
MIC (C. auris; read-out: GM MIC, CLSI): 0.31 µg/mL (≈ 0.335 µM)
MIC (C. auris; read-out: GM MIC, EUCAST): 0.46 µg/mL (≈ 0.498 µM)
activity, in words [3]: lowest activity
MIC (A. terreus; read-out: GM MIC, CLSI): 1.4 µg/mL (≈ 1.52 µM)
MIC (A. terreus; read-out: GM MIC, EUCAST): 2 µg/mL (≈ 2.16 µM)
MIC (A. flavus; read-out: GM MIC, CLSI): 1.1 µg/mL (≈ 1.19 µM)
MIC (A. flavus; read-out: GM MIC, EUCAST): 1.7 µg/mL (≈ 1.84 µM)
MIC (C. tropicalis; read-out: GM MIC, CLSI): 0.31 µg/mL (≈ 0.335 µM)
MIC (C. tropicalis; read-out: GM MIC, EUCAST): 0.36 µg/mL (≈ 0.39 µM)
MIC (Candida albicans; read-out: GM MIC, CLSI): 0.21 µg/mL (≈ 0.227 µM)
MIC (Candida albicans; read-out: GM MIC, EUCAST): 0.23 µg/mL (≈ 0.249 µM)
MIC (A. niger; read-out: GM MIC, CLSI): 0.36 µg/mL (≈ 0.39 µM)
MIC (A. niger; read-out: GM MIC, EUCAST): 0.22 µg/mL (≈ 0.238 µM)
MIC [4]: 0.2 to 0.5 µg/mL (≈ 0.216 to 0.541 µM)
MIC (Aspergillus fumigatus; read-out: GM MIC, CLSI): 0.64 µg/mL (≈ 0.693 µM)
MIC (Aspergillus fumigatus; read-out: GM MIC, EUCAST): 0.65 µg/mL (≈ 0.703 µM)
MIC (A. nidulans; read-out: GM MIC, CLSI): 0.9 µg/mL (≈ 0.974 µM)
MIC (A. nidulans; read-out: GM MIC, EUCAST): 1.7 µg/mL (≈ 1.84 µM)

Clc1ccccc1C(c1ccccc1)(c1ccccc1)n1ccnc1 [CTZ, clotrimazole]
susceptibility category [5]: susceptible

C=CCc1ccc(O)c(-c2ccc(O)c(CC=C)c2)c1 [honokiol, Honokiol]
ergosterol content (T. rubrum): 9.52 ± 0.43 mg%
FICI [6]: 0.53–0.75
MIC [7]: 8 to 16 µg/mL
